Data as given in patent publication US6716987B1, “Derivatives of benzofuran or benzodioxazole compounds” (Kyowa Hakko Kogyo Co., Ltd., priority 1995, dated 2004).

Experiments:
phosphodiesterase 4A = biological target: T1, phosphodiesterase 4A (Homo sapiens, UniProt P27815); experiment: Recombinant human PDE4A assay; type: biochemical; conditions: for inhibition at 0.1 µM: 10^−7 M, read-out: Enzyme Inhibitory Activity (%, 10^−7 M)
T1 construct: made in house; host or cells: E. coli
T1 sequence (P27815 224-886 limits assumed): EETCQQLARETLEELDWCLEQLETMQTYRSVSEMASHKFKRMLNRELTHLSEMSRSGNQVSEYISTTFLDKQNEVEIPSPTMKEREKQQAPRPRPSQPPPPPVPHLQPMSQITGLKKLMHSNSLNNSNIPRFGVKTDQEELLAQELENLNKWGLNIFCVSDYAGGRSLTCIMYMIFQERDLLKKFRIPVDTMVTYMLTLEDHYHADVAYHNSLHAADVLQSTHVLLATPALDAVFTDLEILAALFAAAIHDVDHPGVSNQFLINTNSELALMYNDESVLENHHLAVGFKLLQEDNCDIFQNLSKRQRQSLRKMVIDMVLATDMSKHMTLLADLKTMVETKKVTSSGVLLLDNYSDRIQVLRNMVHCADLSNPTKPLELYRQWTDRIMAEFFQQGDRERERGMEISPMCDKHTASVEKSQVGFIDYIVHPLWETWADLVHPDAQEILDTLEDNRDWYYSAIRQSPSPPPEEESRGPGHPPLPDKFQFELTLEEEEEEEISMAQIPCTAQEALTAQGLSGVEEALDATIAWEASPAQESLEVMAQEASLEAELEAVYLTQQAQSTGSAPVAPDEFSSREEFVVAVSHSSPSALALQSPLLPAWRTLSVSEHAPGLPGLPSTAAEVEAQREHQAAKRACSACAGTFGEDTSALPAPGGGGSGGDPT

Row | SMILES | inhibition at 0.1 µM (phosphodiesterase 4A) | melting point | Enzyme Inhibitory Activity (%, 10^−7 M) (phosphodiesterase 4A)
1 | COc1ccc(C(=O)Cc2c(Cl)cncc2Cl)c2c(CC(=O)NCc3ccccc3)coc12 [Compound 155, 3-Benzylaminocarbonylmethyl-4-[2-(3,5-dichloro-4-pyridyl)-1-oxoethyl]-7-methoxybenzofuran] | 96% | 244 to 246 °C | 
2 | COc1ccc(C(=O)Cc2c(Cl)cccc2Cl)c2cc(C(=O)c3ccccn3)oc12 [Compound 160, 4-[2-(2,6-Dichlorophenyl)-1-oxoethyl]-7-methoxy-2-(2-pyridylcarbonyl)benzofuran] | 91% | 228 to 229 °C | 
3 | COc1ccc(/C=C/c2c(Cl)cncc2Cl)c2c1OCCCO2 [Compound 191, (E)-6-[2-(3,5-dichloro-4-pyridyl)ethenyl]-3,4-dihydro-9-methoxy-2H-1,5-benzodioxepin] | 84% | 118 to 120 °C | 
4 | COc1ccc(C(=O)Cc2c(Cl)cncc2Cl)c2cc(-c3ccncc3)oc12.Cl.Cl [Compound 114, 4-[2-(3,5-Dichloro-4-pyridyl)-1-oxoethyl]-7-methoxy-2-(4-pyridyl)benzofuran.2 hydrochloride] |  |  | 100%
5 | COc1ccc(C(=O)Cc2c(Cl)cncc2Cl)c2c1OC1(CCCCCC1)O2 [Compound 177, 7-[2-(3,5-Dichloro-4-pyridyl)-1-oxoethyl)-4-methoxy-spiro[1,3-benzodioxole-2,1′-cycloheptane]] | 93% |  | 
6 | COc1ccc(C(=O)Cc2c(Cl)cncc2Cl)c2c(CC(=O)Nc3cccnc3)coc12 [Compound 156, 4-[2-(3,5-Dichloro-4-pyridyl)-1-oxoethyl]-7-methoxy-3-[(3-pyridyl)aminocarbonylmethyl]benzofuran] | 90% | 252 to 255 °C | 
7 | COc1ccc(C=Cc2c(Cl)cncc2Cl)c2c1OC1(CCCC1)O2 [Compound 138, 7-[2-(3,5-Dichloro-4-pyridyl)ethenyl]-4-methoxy-spiro[1,3-benzodioxole-2,1′-cyclopentane]] | 100% | 100 to 101 °C | 
8 | COc1ccc(C(=O)Nc2c(Cl)cncc2Cl)c2cc(C(=O)c3ccccc3)oc12 [Compound 35] |  |  | 100%
9 | COc1ccc(C(=O)Cc2c(Cl)cncc2Cl)c2c(CC(=O)OCCc3ccccc3)coc12 [Compound 153, 4-[2-(3,5-Dichloro-4-pyridyl)-1-oxoethyl]-7-methoxy-3-phenethyloxycarbonylmethylbenzofuran] | 94% | 183 to 184 °C | 
10 | COc1ccc(C(=O)Cc2ccncc2)c2c1OC1(CCCC1)O2.Cl [Compound 141, 4-Methoxy-7-[1-oxo-2-(4-pyridyl)ethyl]-spiro[1,3-benzodioxole-2,1′-cyclopentane].hydrochloride] |  |  | 76%
11 | COc1ccc(C(=O)Cc2c(Cl)cccc2Cl)c2cc(C(=O)Nc3cccc(F)c3)oc12 [Compound 161, 4-[2-(2,6-Dichlorophenyl)-1-oxoethyl]-2-[(3-fluorophenyl)aminocarbonyl]-7-methoxybenzofuran] | 87% | 251 to 252 °C | 
12 | COc1ccc(C(=O)Nc2c(Cl)cncc2Cl)c2c1OC1(C=C2)CCCC1 [Compound 123, 5-(3,5-Dichloro-4-pyridylaminocarbonyl)-8-methoxy-spiro[benzopyran-2,1′-cyclopentane]] | 87% | 129 to 131 °C | 
13 | COc1ccc(/C=C/c2c(Cl)cncc2Cl)c2cc(-c3ccccn3)oc12 [Compound 84, (E)-4-[2-(3,5-Dichloro-4-pyridyl)ethenyl]-7-methoxy-2-(2-pyridyl)benzofuran] | 98% | 157 to 158 °C | 
14 | COc1ccc(C(=O)Cc2c(Cl)cncc2Cl)c2c1OCCCCO2 [Compound 194, 7-[2-(3,5-dichloro-4-pyridyl)-1-oxoethyl]-10-methoxy-2,3,4,5-tetrahydro-1,6-benzodioxocin] | 92% | 142 to 143 °C | 
15 | COc1ccc(C(=O)Cc2ccncc2)c2cc(C(=O)Nc3ccccc3)oc12.Cl [Compound 165, 7-Methoxy-4-[1-oxo-2-(4-pyridyl)ethyl]-2-(phenylaminocarbonyl)benzofuran.hydrochloride] |  |  | 64%
16 | COc1ccc(C(=O)Nc2c(Cl)cccc2Cl)c2cc(C(=O)c3ccccc3)oc12 [Compound 168, 2-Benzoyl-4-[(2,6-dichiorophenyl)aminocarbonyl]-7-methoxybenzofuran] |  |  | 96%
17 | COc1ccc(C(=O)Cc2c(Cl)cncc2Cl)c2c(CC(=O)OCc3ccccc3[N+](=O)[O-])coc12 [Compound 154, 4-[2-(3,5-Dichloro-4-Pyridyl)-1-oxoethyl]-7-methoxy-3-[(2-nitrobenzyl)oxycarbonylmethyl]benzofuran] | 92% | 200 to 201 °C | 
18 | COc1ccc(C(=O)Cc2c(Cl)cccc2Cl)c2cc(C(=O)c3ccccc3)oc12 [Compound 163, 2-Benzoyl-4-[2-(2,6-dichlorophenyl)-1-oxoethyl]-7-methoxybenzofuran] | 96% | 223 to 224 °C | 
19 | CCOC(=O)c1coc2c(OC)ccc(C(=O)Cc3c(Cl)cncc3Cl)c12 [Compound 159, Ethyl 4-[2-(3,5-dichloro-4-pyridyl)-1-oxoethyl]-7-methoxybenzofuran-3-carboxylate] | 99% |  | 
20 | COc1ccc(C(=O)Cc2c(Cl)cncc2Cl)c2c1OC1(CCCCC1)C2 [Compound 101, 4-[2-(3,5-Dichloro-4-pyridyl)-1-oxoethyl]-7-methoxy-spiro[2,3-dihydrobenzofuran-2,1′-cyclohexane]] | 100% | 149 to 151 °C | 
21 | COc1ccc(C(=O)Cc2c(Cl)cncc2Cl)c2c1OCCCO2 [Compound 189, 6-[2-(3,5-dichloro-4-pyridyl)-1-oxoethyl]-3,4-dihydro-9-methoxy-2H-1,5-benzodioxepin] | 84% | 150 to 151 °C | 
22 | COc1ccc(C(=O)Nc2c(Cl)cncc2Cl)c2c1OC1(CCCC1)O2 [Compound 134, 7-(3,5-Dichloro-4-pyridylaminocarbonyl)-4-methoxy-spiro[1,3-benzodioxole-2,1′-cyclopentane]] | 100% | 168 to 170 °C | 
23 | COc1ccc(C(=O)Cc2ccncc2)c2c1OC1(CCCCC1)C2.Cl [Compound 102, 7-Methoxy-4-[1-oxo-2-(4-pyridyl)ethyl]-spiro[2,3-dihydrobenzofuran-2,1′-cyclohexane].hydrochloride] |  |  | 95%
24 | COc1ccc(C(=O)Cc2c(Cl)cncc2Cl)c2c1OC1(CCCC1)O2 [Compound 140, 7-[2-(3,5-Dichloro-4-pyridyl)-1-oxoethyl]-4-methoxy-spiro[1,3-benzodioxole-2,1′-cyclopentane]] | 100% |  | 
25 | COc1ccc(C(=O)Nc2c(Cl)cncc2Cl)c2c1OC(C)(C)O2 [Compound 199, 7-(3,5-dichloro-4-pyridylaminocarbonyl)-4-methoxy-2,2-dimethyl-3,4-benzodioxole] |  |  | 57%
26 | COc1ccc(C(=O)Cc2c(Cl)c[n+]([O-])cc2Cl)c2c1OCCCCO2 [Compound 195, 7-[2-(3,5-dichloro-N-oxo-4-pyridyl)-1-oxoethyl]-10-methoxy-2,3,4,5-tetrahydro-1,6-benzodioxocin] |  |  | 93%
27 | COc1ccc(C(=O)Cc2c(Cl)cncc2Cl)c2c(CC(=O)NCc3ccccn3)coc12.Cl.Cl [Compound 157, 4-[2-(3,5-Dichloro-4-pyridyl)-1-oxoethyl]-7-methoxy-3-[(2-pyridylmethyl)aminocarbonylmethyl]benzofuran.2 hydrochloride] |  |  | 89%
